Among the test systems are NCI-H226 lung; TK-10 renal; HCC-2998 colon; IGROV1 ovarian; NCI-H460 lung; RPMI-8226 leukemia; NCI-H23 lung; SK-OV-3 ovarian; COLO 205 colon.
Common to all, as to experiment: NCI-60 cell line screen, 48 h

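Protocol summary: plate cells (96-well), add compound at 5 concentrations, incubate 48 h, interpolate endpoints linearly. The concentration for 50% growth inhibition is given as GI50. The concentration for full growth arrest is given as TGI.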

On to `N#CC(C(=O)CCC(=O)Nc1cccc(C(F)(F)F)c1)c1ccccc1` (stereo not drawn), for which the TGI in the experiment on NCI-H226 lung, in the experiment on TK-10 renal, with HCC-2998 colon, with IGROV1 ovarian, in the experiment on NCI-H460 lung and in the experiment with RPMI-8226 leukemia was more than 100 µM throughout. The same molecule yielded a TGI in the experiment with NCI-H23 lung of more than 100 µM.
With `O=c1cc(-c2ccccc2)oc2c1ccc1ccccc12`, the GI50 in the experiment on SK-OV-3 ovarian is 19.3 µM; in the experiment with NCI-H226 lung, 18.9 µM; in the experiment with TK-10 renal, 28.2 µM; in the experiment with HCC-2998 colon, 56.7 µM; in the experiment with IGROV1 ovarian, 14.1 µM; in the experiment on COLO 205 colon it was 24.2 µM. Besides, the figures for the GI50 in the experiment on NCI-H460 lung, in the experiment on RPMI-8226 leukemia and in the experiment with NCI-H23 lung were 28.6 µM, 21.7 µM and 32.6 µM, respectively. Moreover, the TGI in the experiment on SK-OV-3 ovarian is 54.1 µM; in the experiment with NCI-H226 lung, 59.5 µM; with TK-10 renal, 65 µM; with HCC-2998 colon it was more than 100 µM; in the experiment with IGROV1 ovarian, 55.8 µM; in the experiment with COLO 205 colon, more than 100 µM. Moreover, the TGI in the experiment with NCI-H460 lung is more than 100 µM; in the experiment on RPMI-8226 leukemia it was 70.2 µM; with NCI-H23 lung it was more than 100 µM.
With `O=C(c1ccccc1)C1OC1C(=O)c1ccccc1` (stereo not drawn), the GI50 was 7.98 µM in the experiment on SK-OV-3 ovarian; 5.24 µM with NCI-H226 lung; 1.86 µM in the experiment with TK-10 renal; 2.94 µM in the experiment on HCC-2998 colon; 3.56 µM in the experiment on IGROV1 ovarian; 4.94 µM in the experiment with COLO 205 colon. In addition, the GI50 was 3.93 µM in the experiment on NCI-H460 lung, 3.34 µM in the experiment with RPMI-8226 leukemia and 2.33 µM in the experiment on NCI-H23 lung. Moreover, the TGI is more than 100 µM in the experiment on SK-OV-3 ovarian; more than 100 µM in the experiment with NCI-H226 lung; 8.37 µM in the experiment on TK-10 renal; 10.3 µM in the experiment with HCC-2998 colon; 15 µM in the experiment with IGROV1 ovarian; 15.4 µM in the experiment on COLO 205 colon. The values for the TGI in the experiment with NCI-H460 lung, in the experiment with RPMI-8226 leukemia and with NCI-H23 lung were more than 100 µM, 11.6 µM and 10.8 µM, respectively.
As to `O=C(CC1(O)C(=O)Nc2ccccc21)c1ccc(Cl)cc1Cl` (stereo not drawn), the TGI in the experiment on SK-OV-3 ovarian, with NCI-H226 lung, with TK-10 renal, with IGROV1 ovarian, in the experiment with COLO 205 colon and in the experiment with RPMI-8226 leukemia was more than 100 µM in each case. The molecule further showed a TGI in the experiment with NCI-H23 lung of more than 100 µM.
Regarding `Brc1ccc(C=NC23CC4CC(CC(C4)C2)C3)cc1`, the TGI in the experiment on SK-OV-3 ovarian, in the experiment with NCI-H226 lung, in the experiment with TK-10 renal, in the experiment with HCC-2998 colon, in the experiment on IGROV1 ovarian and in the experiment with COLO 205 colon was more than 100 µM throughout. Further, the TGI with NCI-H460 lung, in the experiment on RPMI-8226 leukemia and in the experiment on NCI-H23 lung was more than 100 µM throughout.
Take `C[C@]12CCc3nonc3C1CC[C@@H]1C2CC[C@@]2(C)C1CC[C@@H]2O` (stereo partly drawn): the TGI with SK-OV-3 ovarian, in the experiment on NCI-H226 lung, in the experiment with TK-10 renal, in the experiment on HCC-2998 colon, with IGROV1 ovarian and in the experiment on COLO 205 colon was more than 100 µM in each case. In addition, the TGI with NCI-H460 lung, in the experiment on RPMI-8226 leukemia and with NCI-H23 lung was more than 100 µM each time.
With `COc1ccc(C[C@]23CCC(=O)N2CCc2cc(OC)c(O)cc23)cc1O`, the TGI with NCI-H226 lung, in the experiment with TK-10 renal, with HCC-2998 colon, in the experiment on IGROV1 ovarian, in the experiment with COLO 205 colon and in the experiment on NCI-H460 lung was more than 100 µM in each case. Also, the TGI with RPMI-8226 leukemia and in the experiment on NCI-H23 lung was more than 100 µM throughout.
Consider `C[N+](C)(C)C1CC([N+](C)(C)C)C2c3ccccc3C21` (stereo not drawn), for which the TGI in the experiment with SK-OV-3 ovarian, with NCI-H226 lung, in the experiment on TK-10 renal, in the experiment on HCC-2998 colon, in the experiment on IGROV1 ovarian and in the experiment on COLO 205 colon was more than 100 µM each time. For the same molecule, the TGI in the experiment with NCI-H460 lung, in the experiment with RPMI-8226 leukemia and in the experiment with NCI-H23 lung was more than 100 µM in each case.
`C1C[OH+]CCNCC[OH+]CC[OH+]CCN1.N.[Cl-].[Pt+4]`: the GI50 is 25.1 µM with SK-OV-3 ovarian; 38.2 µM in the experiment on NCI-H226 lung; 49.5 µM in the experiment with TK-10 renal; 54.1 µM in the experiment with HCC-2998 colon; 49.6 µM in the experiment on IGROV1 ovarian; 18.9 µM with COLO 205 colon. Moreover, the GI50 in the experiment with NCI-H460 lung is 93 µM; with RPMI-8226 leukemia, 27.5 µM; in the experiment on NCI-H23 lung, 27.1 µM. Further, the TGI with SK-OV-3 ovarian is 96 µM; in the experiment with NCI-H226 lung, more than 100 µM; in the experiment on TK-10 renal it was more than 100 µM; with HCC-2998 colon, more than 100 µM; with IGROV1 ovarian, more than 100 µM; in the experiment on COLO 205 colon, 47.7 µM. Further, the TGI in the experiment on NCI-H460 lung, in the experiment with RPMI-8226 leukemia and in the experiment on NCI-H23 lung was more than 100 µM in each case.
Turning to `CC[O-].CC[O-].O=C([CH-]C(=O)c1ccccc1)CCCCCCC(=O)[CH-]C(=O)c1ccccc1.[Ti+4]`, the GI50 in the experiment with SK-OV-3 ovarian, with TK-10 renal, in the experiment with HCC-2998 colon, with IGROV1 ovarian, in the experiment with COLO 205 colon and in the experiment with NCI-H460 lung was more than 100 µM each time. The GI50 in the experiment on RPMI-8226 leukemia and in the experiment with NCI-H23 lung was more than 100 µM each time. The TGI in the experiment with SK-OV-3 ovarian, in the experiment with TK-10 renal, in the experiment on HCC-2998 colon, in the experiment with IGROV1 ovarian, in the experiment on COLO 205 colon and in the experiment on NCI-H460 lung was more than 100 µM throughout. For the same molecule, the TGI with RPMI-8226 leukemia and in the experiment with NCI-H23 lung was more than 100 µM throughout.
Consider `O=C(CCCC(=O)N/N=C/c1cc(Cl)ccc1O)N/N=C\c1cc(Cl)ccc1O`, for which the GI50 was 5.95 µM in the experiment on SK-OV-3 ovarian; 6.64 µM in the experiment on NCI-H226 lung; 4.21 µM in the experiment on IGROV1 ovarian; 4.16 µM in the experiment with COLO 205 colon; 2.94 µM in the experiment with NCI-H460 lung; 4.67 µM in the experiment with RPMI-8226 leukemia. Moreover, the GI50 in the experiment on NCI-H23 lung is 11.9 µM. For the same molecule, the TGI with SK-OV-3 ovarian is more than 100 µM; in the experiment with NCI-H226 lung it was 65.7 µM; in the experiment with IGROV1 ovarian, more than 100 µM; in the experiment with COLO 205 colon it was more than 100 µM; with NCI-H460 lung, more than 100 µM; in the experiment on RPMI-8226 leukemia it was more than 100 µM. The TGI with NCI-H23 lung was more than 100 µM.
